One assay has as its target D(2) dopamine receptor (Homo sapiens, UniProt P14416). The assay can be described thus: Ability to displace [125I]iodosulpiride from human dopamine D2 (hD2) receptor transfected into CHO cells. In kind it is cell-based.
In a further assay the target is D(3) dopamine receptor (Homo sapiens, UniProt P35462). Put plainly: Ability to displace [125I]iodosulpiride from human dopamine D3 (hD3) receptor transfected into CHO cells. In kind it is cell-based.

A word on the Ki: it is a dissociation constant, usually derived from enzyme kinetics or from competition with a known ligand.

Chain of D(2) dopamine receptor (P14416 whole entry): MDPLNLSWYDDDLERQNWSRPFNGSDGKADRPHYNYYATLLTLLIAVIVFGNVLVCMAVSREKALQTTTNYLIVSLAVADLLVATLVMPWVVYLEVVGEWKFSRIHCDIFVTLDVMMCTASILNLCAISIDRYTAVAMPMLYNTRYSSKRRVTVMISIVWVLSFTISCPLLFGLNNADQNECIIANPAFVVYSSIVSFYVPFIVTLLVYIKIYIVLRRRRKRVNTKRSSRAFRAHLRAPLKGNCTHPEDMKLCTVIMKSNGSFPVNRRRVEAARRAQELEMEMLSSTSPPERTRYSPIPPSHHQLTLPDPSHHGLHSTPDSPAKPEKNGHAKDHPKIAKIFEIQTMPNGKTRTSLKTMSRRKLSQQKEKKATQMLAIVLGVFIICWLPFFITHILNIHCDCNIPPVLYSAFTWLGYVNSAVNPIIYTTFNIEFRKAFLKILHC
Chain of D(3) dopamine receptor (P35462 whole entry): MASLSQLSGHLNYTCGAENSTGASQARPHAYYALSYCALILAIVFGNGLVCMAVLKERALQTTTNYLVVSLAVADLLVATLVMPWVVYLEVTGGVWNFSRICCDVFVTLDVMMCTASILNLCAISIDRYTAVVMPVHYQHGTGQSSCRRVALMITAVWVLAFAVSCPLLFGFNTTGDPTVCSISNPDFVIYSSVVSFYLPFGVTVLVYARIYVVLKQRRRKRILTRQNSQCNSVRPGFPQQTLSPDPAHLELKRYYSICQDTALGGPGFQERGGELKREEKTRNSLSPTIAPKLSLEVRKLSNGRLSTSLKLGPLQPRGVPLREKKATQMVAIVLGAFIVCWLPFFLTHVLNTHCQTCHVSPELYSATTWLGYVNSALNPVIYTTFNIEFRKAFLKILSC

In the case of `N#Cc1ccc2c(c1)C1CN(CCCCNC(=O)c3ccc(-c4ccccc4)cc3)CC1CO2` (stereo not drawn), the Ki was 79.4 nM at D(2) dopamine receptor and 0.794 nM on D(3) dopamine receptor.
For the molecule `N#Cc1ccc2c(c1)[C@H]1CN(Cc3ccccc3)C[C@@H]1CO2`, the Ki at D(2) dopamine receptor was 20 nM; on D(3) dopamine receptor, 2.51 nM.
For `COc1ccc2c(c1)C1CN(Cc3ccccc3)CC1CO2` (stereo not drawn) the same measures were 200 nM and 79.4 nM.
Consider `N#Cc1ccc2c(c1)[C@@H]1CN(Cc3ccccc3)C[C@H]1CO2`, for which the results for the Ki at D(2) dopamine receptor and on D(3) dopamine receptor were 31.6 nM and 6.31 nM, respectively.
With `CC(=O)Nc1ccc(CN2C[C@H]3COc4ccc(C#N)cc4[C@@H]3C2)cc1`, the Ki on D(2) dopamine receptor is 31.6 nM; at D(3) dopamine receptor, 20 nM.
As to `CC(=O)Nc1ccc(CCN2C[C@@H]3COc4ccc(C#N)cc4[C@H]3C2)cc1`, the Ki on D(2) dopamine receptor was 31.6 nM; on D(3) dopamine receptor, 1 nM.
Take `CC(=O)c1ccc(C(=O)Nc2ccc(CCN3CC4COc5ccc(C#N)cc5C4C3)cc2)cc1` (stereo not drawn): the Ki on D(2) dopamine receptor was 20 nM; at D(3) dopamine receptor it was 0.794 nM.
As for `CCCN1CC2COc3ccc(C#N)cc3C2C1` (stereo not drawn), the Ki on D(2) dopamine receptor is 126 nM; on D(3) dopamine receptor, 15.8 nM.
Turning to `CS(=O)(=O)Nc1ccc(CCN2CC3COc4ccc(C#N)cc4C3C2)cc1` (stereo not drawn), the results for the Ki on D(2) dopamine receptor and at D(3) dopamine receptor were 25.1 nM and 1.58 nM, respectively.
Regarding `COc1ccc2c(c1)OCC1CN(Cc3ccccc3)CC21` (stereo not drawn), the inhibition constant (Ki) is 251 nM at D(2) dopamine receptor and 79.4 nM on D(3) dopamine receptor.
As to `CC(=O)Nc1ccc(CCN2CC3COc4ccc(C#N)cc4C3C2)cc1` (stereo not drawn), the Ki at D(2) dopamine receptor was 39.8 nM; at D(3) dopamine receptor, 1 nM.
With `CC(=O)Nc1ccc(CN2C[C@@H]3COc4ccc(C#N)cc4[C@H]3C2)cc1`, the Ki on D(2) dopamine receptor is 12.6 nM; on D(3) dopamine receptor, 10 nM.
On to `CC(=O)Nc1ccc(CCN2C[C@H]3COc4ccc(C#N)cc4[C@@H]3C2)cc1`, for which the Ki was 39.8 nM at D(2) dopamine receptor and 3.16 nM at D(3) dopamine receptor.
With `N#Cc1ccc2c(c1)[C@H]1CN(Cc3ccc(F)cc3)C[C@@H]1CO2`, the Ki on D(2) dopamine receptor is 25.1 nM; on D(3) dopamine receptor, 6.31 nM.
With `N#Cc1ccc2c(c1)C1CN(Cc3ccc(F)cc3)CC1CO2` (stereo not drawn), the Ki on D(2) dopamine receptor was 79.4 nM; at D(3) dopamine receptor, 7.94 nM.
Taken in the same sequence, the figures for `CC(=O)Nc1ccc(CN2CC3COc4ccc(C#N)cc4C3C2)cc1` (stereo not drawn) were 25.1 nM and 12.6 nM.
`N#Cc1ccc2c(c1)[C@@H]1CN(Cc3ccc(F)cc3)C[C@H]1CO2`: the Ki is 39.8 nM on D(2) dopamine receptor and 15.8 nM at D(3) dopamine receptor.
Regarding `N#Cc1ccc2c(c1)[C@H]1CN(CCCCNC(=O)c3ccc(-c4ccccc4)cc3)C[C@@H]1CO2`, the Ki is 31.6 nM at D(2) dopamine receptor and 0.316 nM on D(3) dopamine receptor.
Take `N#Cc1ccc2c(c1)[C@@H]1CN(CCCCNC(=O)c3ccc(-c4ccccc4)cc3)C[C@H]1CO2`: the inhibitory constant (Ki) on D(2) dopamine receptor was 50.1 nM; at D(3) dopamine receptor it was 0.631 nM.
With `N#Cc1ccc2c(c1)C1CN(Cc3ccccc3)CC1CO2` (cis isomer), the Ki at D(2) dopamine receptor was 316 nM; at D(3) dopamine receptor, 100 nM.
Regarding `N#Cc1ccc2c(c1)[C@H]1CN(CCCCNC(=O)c3ccc(-c4ccc(N)cc4)cc3)C[C@@H]1CO2` (single isomer, unassigned), the figures for the Ki at D(2) dopamine receptor and on D(3) dopamine receptor were 20 nM and 0.2 nM, respectively.
`Brc1ccc2c(c1)C1CN(Cc3ccccc3)CC1CO2` (stereo in doubt; cis): the values for the Ki on D(2) dopamine receptor and at D(3) dopamine receptor were 501 nM and 100 nM, respectively.
Regarding `Brc1ccc2c(c1)C1CN(Cc3ccccc3)CC1CO2` (stereo in doubt; trans), the Ki at D(2) dopamine receptor is 50.1 nM; on D(3) dopamine receptor, 15.8 nM.
With `Clc1ccc2c(c1)C1CN(Cc3ccccc3)CC1CO2` (trans isomer), the Ki on D(2) dopamine receptor is 31.6 nM; on D(3) dopamine receptor, 15.8 nM.
Taken in the same sequence, the figures for `N#Cc1ccc2c(c1)OCC1CN(Cc3ccccc3)CC21` (trans isomer) were 501 nM and 25.1 nM.
For `N#Cc1ccc2c(c1)C1CN(Cc3ccccc3)CC1CO2` (trans isomer), the Ki at D(2) dopamine receptor is 25.1 nM; at D(3) dopamine receptor, 3.98 nM.
Taken in the same sequence, the figures for `Fc1ccc2c(c1)C1CN(Cc3ccccc3)CC1CO2` (trans isomer) were 25.1 nM and 7.94 nM.
As for `c1ccc(CN2CC3COc4ccccc4C3C2)cc1` (trans isomer), the inhibition constant Ki on D(2) dopamine receptor is 316 nM; at D(3) dopamine receptor, 126 nM.
Regarding `N#Cc1ccc2c(c1)C1CN(Cc3ccccc3)CC1CC2` (trans isomer), the Ki on D(2) dopamine receptor was 10 nM; at D(3) dopamine receptor, 6.31 nM.

(Values after ChEMBL document CHEMBL1131803, “Novel benzopyrano[3,4-c]pyrrole derivatives as potent and selective dopamine D3 receptor antagonist” (Bioorg Med Chem Lett, 1999).)
